# Experimental data from PubChem BioAssay (NCI).
#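 A five-concentration, 48-hour dose response in 96-well plates underlies each endpoint, interpolated linearly between surrounding concentrations. GI50: concentration for 50% inhibition of growth. At the TGI there is no net growth.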 Where a SMILES comes first, the peptide text is derived from it. [ ]: non-standard residue; d: D form. The star is where a group is joined. Bn2Val = CC(C)[C@@H](C(=O)*)N(Cc1ccccc1)Cc1ccccc1; NH(4-Cl-benzyl) = Clc1ccc(CN*)cc1; NMeV = CN[C@H](C(=O)O)C(C)C; dNMeA = CN[C@H](C)C(=O)O
# Legend:
# Assay in all cases: NCI-60 cell line screen, 48 h
# BT-549 breast = tested on: BT-549 breast
# HCT-116 colon = tested on: HCT-116 colon
# HS 578T breast = tested on: HS 578T breast
# KM12 colon = tested on: KM12 colon
# M14 melanoma = tested on: M14 melanoma
# MDA-N = tested on: MDA-N
# OVCAR-3 ovarian = tested on: OVCAR-3 ovarian
# SK-MEL-2 melanoma = tested on: SK-MEL-2 melanoma
# SNB-19 CNS = tested on: SNB-19 CNS
# SR leukemia = tested on: SR leukemia
Compound,TGI (BT-549 breast) [µM],TGI (HCT-116 colon) [µM],TGI (HS 578T breast) [µM],TGI (KM12 colon) [µM],TGI (M14 melanoma) [µM],TGI (MDA-N) [µM],TGI (OVCAR-3 ovarian) [µM],TGI (SK-MEL-2 melanoma) [µM],TGI (SNB-19 CNS) [µM],TGI (SR leukemia) [µM],GI50 (MDA-N) [µM],GI50 (SR leukemia) [µM],GI50 (HCT-116 colon) [µM],GI50 (OVCAR-3 ovarian) [µM]
Cc1ccc(S(=O)CC(CF)OCn2cc(C)c(=O)[nH]c2=O)cc1 (centres undefined),> 100,> 100,> 100,> 100,> 100,> 100,> 100,> 100,> 100,> 100,–,–,–,–
CN(Cc1cnc2nc(N)nc(N)c2n1)c1ccc(C(=O)NC(CO)CCCO)cc1 (centres undefined),> 100,> 100,> 100,> 100,> 100,> 100,> 100,> 100,> 100,> 100,–,–,–,–
O=[N+]([O-])c1cccc(N=Nc2c(O)c(S(=O)(=O)O)cc3cc(S(=O)(=O)O)ccc23)c1,> 100,> 100,> 100,> 100,> 100,> 100,> 100,> 100,> 100,> 100,–,–,–,–
C=C(C)[C@H]1C2=CC(C)=C(O2)[C@@H](O[C@@H]2c3oc(cc3C)[C@H](C(=C)C)[C@H]3C=C(CC[C@H]2C(=C)C)C(=O)O3)[C@H](C(=C)C)CCC2=C[C@H]1OC2=O,> 100,> 100,> 100,> 100,> 100,> 100,> 100,> 100,> 100,> 100,–,–,–,–
O=C1c2c(O)cccc2-c2nn(CCNCCO)c3ccc(NCCNCCO)c1c23,1.42,2.75,0.535,7.73,2.02,1.94,5.86,1.38,0.405,3,–,–,–,–
CCOC(=O)Nn1c(CC#N)nnc1Cc1ccccc1,> 100,> 100,> 100,> 100,> 100,> 100,> 100,> 100,> 100,> 100,–,–,–,–
COc1ccc(C(=O)CC(c2ccccc2)[C@H]2C(c3ccc(OC)cc3)=Nc3c(nc(SC)n(C)c3=O)NC2c2ccccc2)cc1 (some centres undefined),> 100,> 100,> 100,> 100,> 100,> 100,> 100,> 100,> 100,> 100,–,–,–,–
CC(Oc1ccccc1Cl)C(=O)NN1C(=O)CSC1c1ccccc1 (centres undefined),> 100,> 100,> 100,> 100,> 100,> 100,> 100,> 100,> 100,> 100,–,–,–,–
Cc1c(C(=O)OCc2ccccc2)[n+](=O)c2cc(Cl)c(Cl)cc2n1[O-],44.4,27.2,47.4,24.6,28.3,40.7,25,38.6,68.1,21.4,–,–,–,–
Cc1cc2c([nH]c3ccccc32)c(O)c1-c1c(C)cc2c([nH]c3ccccc32)c1O,33.6,27.2,32.7,21.7,29.8,27.8,29.3,30.6,32.2,16,14.7,3.16,–,–
c1ccc(/C(=N/Nc2ccncn2)c2ccccn2)cc1,> 100,> 100,29.9,93,30.5,> 100,32.5,> 100,> 100,> 100,–,–,–,–
O=C(N/N=C/C=C/c1ccccc1)c1ccccc1Nc1ccccc1C(=O)N/N=C/C=C/c1ccccc1,> 100,> 100,> 100,> 100,> 100,> 100,> 100,> 100,> 100,> 100,–,–,–,–
O=C1OC[C@H]2[C@@H]1[C@H]1O[C@@H]2C2=C(CCC2)C1=O,> 100,> 100,> 100,> 100,> 100,> 100,> 100,> 100,> 100,> 100,–,–,–,–
CC(C)C(C/C=C1\CC(CO)(COC(=O)C2CCCCC2)OC1=O)C(C)C (centres undefined),47.2,36.5,31.8,39.5,48.4,59.3,35.7,> 100,31.4,> 100,–,–,–,–
COc1cc(C2c3cc4c(cc3C3OC[C@@H]2C3CO)OCO4)cc(OC)c1OC (some centres undefined),97.6,> 100,95.7,> 100,> 100,36.1,97.9,> 100,> 100,> 100,–,–,30.3,23.9
CC(C)(C)[Si](C)(C)OCc1cccc(OCCOc2cccc(CO[Si](C)(C)C(C)(C)C)c2[N+](=O)[O-])c1[N+](=O)[O-],> 100,> 100,> 100,> 100,> 100,> 100,> 100,> 100,> 100,> 100,–,–,–,–
C#CCn1c(=O)c(C)cn(/C(=C\C(=O)OCC)C(=O)OCC)c1=O,22.8,10.3,62,53.6,11.3,22.2,18.4,32.8,39.4,> 27.6,–,–,–,–
NN=C(CC(O)(C(F)(F)Cl)C(F)(F)Cl)CC(O)(C(F)(F)Cl)C(F)(F)Cl,> 10,> 10,> 10,> 10,> 10,> 10,> 10,> 10,> 10,> 10,–,–,–,–
C=CCOn1c(C=C)nc2ccc(C)cc21,41.2,24.4,> 100,44.2,32.6,35.7,40.9,30.6,46,33.4,–,–,–,–
CC(C)(C)n1c(=O)[nH]c(=O)n1C(C)(C)C,> 100,> 100,> 100,> 100,> 100,> 100,> 100,> 100,> 100,> 100,–,–,–,–
O=C(Cc1ccc(Cl)c(Cl)c1)NCC1(N2CCCCC2)CCCCC1,> 100,> 100,> 100,> 100,34.4,> 100,> 100,> 100,> 100,> 100,–,–,–,–
CCN(CC)C(=S)SS(=O)(=O)c1cccc(N)c1,> 100,> 100,> 100,> 100,> 100,> 100,> 100,> 100,> 100,> 100,–,–,–,–
CC(C)[C@H](NC(=O)[C@H](C(C)C)N(Cc1ccccc1)Cc1ccccc1)C(=O)N(C)[C@H](C(=O)N1CCC[C@H]1C(=O)N(C)[C@H](C)C(=O)NCc1ccc(Cl)cc1)C(C)C (Bn2Val-V[NMeV]P[dNMeA]-{NH(4-Cl-benzyl)}),13.5,11.7,4.04,> 100,30.1,30.9,9.67,3.62,> 100,> 100,–,–,–,–
CN1C(=O)C(O)C[C@@H]1c1ccccc1 (some centres undefined),> 100,> 100,> 100,> 100,> 100,> 100,> 100,> 100,> 100,> 100,–,–,–,–
COc1cccc(N=N/C(=N\NC(=O)c2ccc(C)cc2)c2ccc(N(CCC#N)CCC#N)cc2C)c1,> 100,> 100,> 100,> 100,> 100,> 100,> 100,> 100,> 100,> 100,–,–,–,–
Cc1nc(N)c(N2CCN(CN)CC2)c(=O)[nH]1,> 100,> 100,> 100,> 100,> 100,> 100,> 100,> 100,> 100,> 100,–,–,–,–
O=C(c1cccs1)N1CCN(C(=O)c2cccs2)C1=S,14.9,21.7,> 100,12.4,19,14.8,10.7,28.3,32.7,> 100,–,–,–,–
Nc1ccc(S(=O)(=O)Nc2nc3ccccc3nc2N2CCCCCC2)cc1,28.2,33.2,> 100,> 100,> 100,> 100,40.2,40.8,> 100,> 100,–,–,–,–
N#Cc1cc2c(n(C3OC(CO)C(O)C(O)C3O)c1=S)CCCCCC2 (centres undefined),> 100,> 100,> 100,> 100,> 100,> 100,> 100,> 100,> 100,> 100,–,–,–,–
C/C(=N\NC(=S)N(C)C)c1cccnn1,> 100,> 25.9,> 100,> 100,> 100,> 74.2,> 100,> 100,> 100,> 20.3,–,–,–,–
